Test results as given in patent US20240382519A1, “MONOVALENT COPPER/PORPHYRIDIUM SP. POLYSACCHARIDE COMPLEXES, RELATED PRODUCTS AND METHODS OF PREPARATION THEREOF” (B.G. NEGEV TECHNOLOGIES AND APPLICATIONS LTD., AT …, priority 2021, published 2024).

Legend:
Settings in all cases: CFU after 24 h, 0.07% (w/v) polysaccharide, 30 ppm copper, Table 3(b)
B. subtilis = test system: B. subtilis
P. aeruginosa = test system: P. aeruginosa
S. aureus = test system: S. aureus
C. albicans = test system: C. albicans
E. coli = test system: E. coli
A. baumannii = test system: A. baumannii

| Compound | Cell Viability [%] (B. subtilis) | Cell Viability [%] (P. aeruginosa) | Cell Viability [%] (S. aureus) | Cell Viability [%] (C. albicans) | Cell Viability [%] (E. coli) | Cell Viability [%] (A. baumannii) |
| --- | --- | --- | --- | --- | --- | --- |
| [Cl][Cu][Cl] [CuCl2] | 82.0 ± 1.0 | 82.6 ± 6.8 | 81.6 ± 4.5 | 71.0 ± 1.0 | 81.3 ± 5.6 | 81.5 ± 7.4 |
| [Cl][Cu] [CuCl, cuprous chloride] | 52.6 ± 5.4 | 38.9 ± 4.5 |  | 90.3 ± 0.6 |  | 37.4 ± 3.5 |
| [O]=[Cu] [CuO] | 72.7 ± 4.0 | 79.4 ± 8.9 | 71.2 ± 8.9 | 84.7 ± 4.0 | 78.1 ± 6.5 | 87.1 ± 2.3 |
